Laboratory results as given in article PMC11123841, “Discovery and Synthesis of Hydroxy-L-Proline Blockers of the Neutral Amino Acid Transporters SLC1A4 (ASCT1) and SLC1A5 (ASCT2)” (Molecules, 2024).
Entries after “also recorded” stand apart in the source; their conditions may differ.

Columns and labels:
Assay type in all cases: cell-based
SLC38A4 (ATA3) = molecular target: T1, SLC38A4 (ATA3) (Homo sapiens, UniProt Q969I6); test: TEVC electrogenic coupled currents in oocytes; details: 100 µM L-alanine, 3 µM BPOHP
T1 construct: expressed in transfected cells; host or cells: Xenopus laevis oocytes (cRNA injection)
T1 sequence (Q969I6 1-547): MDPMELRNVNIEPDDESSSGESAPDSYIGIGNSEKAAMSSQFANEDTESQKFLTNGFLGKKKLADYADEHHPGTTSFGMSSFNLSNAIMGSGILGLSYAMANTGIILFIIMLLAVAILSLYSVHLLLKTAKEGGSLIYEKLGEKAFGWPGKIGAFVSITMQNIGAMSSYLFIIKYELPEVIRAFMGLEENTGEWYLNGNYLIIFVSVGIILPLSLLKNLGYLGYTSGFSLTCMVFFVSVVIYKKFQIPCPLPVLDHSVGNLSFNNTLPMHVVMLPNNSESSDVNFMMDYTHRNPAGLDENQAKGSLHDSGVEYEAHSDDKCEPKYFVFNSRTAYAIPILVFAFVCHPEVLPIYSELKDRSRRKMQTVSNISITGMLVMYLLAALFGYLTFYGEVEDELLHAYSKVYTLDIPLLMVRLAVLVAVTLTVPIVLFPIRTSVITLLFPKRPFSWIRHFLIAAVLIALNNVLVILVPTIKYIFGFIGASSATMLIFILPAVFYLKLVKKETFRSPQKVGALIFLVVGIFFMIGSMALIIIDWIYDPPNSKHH
Method: (§1) BPOHP activity was evaluated against the glutamate transporters paralogs within the SLC1A gene family (SLC1A 1–3) as well as at neutral amino acid transporters that share common ligand substrates with the SLC1 family including SLC38A1,2, and 4 (ATA1, ATA2, ATA3) and heteromeric transporters SLC7A10+SLC3A2 (asc-1/4f2). […] Finally, radiolabeled [^3H]D-serine uptake was used to assess the electroneutral SLC7A10+SLC3A2 transporter, in which 10 µM BPOHP had no effect (Figure S3).
(§2) Uptake was halted by washing 3 times with 4 °C ND96 buffer. Oocytes were then lysed in 0.1% Triton X-100, and radioactivity was counted via liquid scintillation. Dose response curves were generated by fitting fractional inhibition (I) to the expression I = Imax × [inhibitor]/([inhibitor] + IC50).
(§3) Two-electrode voltage clamp (TEVC) transporter currents were recorded with a GeneClamp 500 amplifier and Digidata 1320A analog–digital interface (Molecular Devices, San Jose, CA, USA). […] Data were acquired with Axograph (v1.7.6) and LabChart (v7) and analyzed with Kaleidagraph software (v4.1) (Synergy, Reading, PA, USA). Uncoupled anion currents associated with the transport of substrate and block of SLC1A4 or SLC1A5 mediated leak conductance were recorded in the presence of Ringer with 50% substitution of NaCl by NaSCN to amplify the non-transported anion conductance. […]

SLC1A2 (EAAT2) = molecular target: T2, SLC1A2 (EAAT2) (Homo sapiens, UniProt P43004); test: TEVC in oocytes expressing glutamate transporter; details: 10 µM L-glu current, read-out: IC50, block of glutamate current
T2 construct: expressed in transfected cells; host or cells: Xenopus laevis oocytes (cRNA injection)
Method: as §1, §2, §3

SLC1A4 = molecular target: T3, SLC1A4 (Homo sapiens, UniProt P43007); test: [3H]L-alanine uptake block in oocytes
T3 construct: expressed in transfected cells; host or cells: Xenopus laevis oocytes (cRNA injection)
T3 sequence (P43007 1-532): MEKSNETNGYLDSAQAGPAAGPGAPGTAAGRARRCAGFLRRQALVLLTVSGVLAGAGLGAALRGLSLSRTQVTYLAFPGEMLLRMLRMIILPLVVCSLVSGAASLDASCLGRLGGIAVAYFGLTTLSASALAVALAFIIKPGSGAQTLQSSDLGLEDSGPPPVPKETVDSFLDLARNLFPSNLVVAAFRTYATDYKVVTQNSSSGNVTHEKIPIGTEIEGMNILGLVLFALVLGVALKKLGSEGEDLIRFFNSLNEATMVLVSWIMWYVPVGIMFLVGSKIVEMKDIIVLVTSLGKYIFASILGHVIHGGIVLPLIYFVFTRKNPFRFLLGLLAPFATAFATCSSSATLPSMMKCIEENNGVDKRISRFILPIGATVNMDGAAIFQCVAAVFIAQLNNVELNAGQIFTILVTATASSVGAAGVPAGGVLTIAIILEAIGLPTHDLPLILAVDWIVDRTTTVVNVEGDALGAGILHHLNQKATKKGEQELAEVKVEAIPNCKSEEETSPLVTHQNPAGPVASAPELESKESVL
Method: as §2

T2 sequence (P43004 whole entry): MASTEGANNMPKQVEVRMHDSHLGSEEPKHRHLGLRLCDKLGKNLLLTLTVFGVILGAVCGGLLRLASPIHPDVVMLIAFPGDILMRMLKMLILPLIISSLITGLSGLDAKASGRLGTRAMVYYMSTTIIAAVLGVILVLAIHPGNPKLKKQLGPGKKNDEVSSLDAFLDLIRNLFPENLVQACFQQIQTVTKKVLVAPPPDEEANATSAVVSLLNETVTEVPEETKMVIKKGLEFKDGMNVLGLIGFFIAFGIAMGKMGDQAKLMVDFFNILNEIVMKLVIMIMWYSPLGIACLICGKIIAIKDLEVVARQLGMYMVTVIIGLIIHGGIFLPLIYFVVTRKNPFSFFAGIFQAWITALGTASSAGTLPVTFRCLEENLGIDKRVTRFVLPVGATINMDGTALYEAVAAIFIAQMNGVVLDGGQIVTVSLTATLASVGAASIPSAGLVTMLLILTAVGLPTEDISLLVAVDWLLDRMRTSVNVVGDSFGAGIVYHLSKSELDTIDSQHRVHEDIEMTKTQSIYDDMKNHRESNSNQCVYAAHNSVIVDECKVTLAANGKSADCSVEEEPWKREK

`O=C(O)[C@H]1NC[C@@H](OCc2ccc(-c3ccccc3)cc2)[C@@H]1O` [14e] was tested, and the “block of L-alanine current” value (SLC38A4 (ATA3)) was “no effect; also recorded: no discernible block; also recorded: no inhibition was detected”, the IC50 (SLC1A2 (EAAT2)) was 1200 nM and the IC50 (SLC1A4) was 128 nM.
